Results: US6733982B1, “Method for screening compounds for alpha1B adrenergic receptor antagonist and analgesic activity” (Syntex (U.S.A.) LLC, priority 1999, dated 2004)

Tests used:
[1] = target: T1, alpha1B adrenergic receptor (Homo sapiens, UniProt P35368); assay: [3H]prazosin radioligand binding on membranes of alpha1 adrenergic receptor transfected CHO-K1 cells; conditions: methods of Example 1: alpha1A, alpha1B and alpha1D transfected CHO-K1 cells
T1 construct: expressed in transfected cells; host or cells: CHO-K1
T1 sequence (P35368 1-520): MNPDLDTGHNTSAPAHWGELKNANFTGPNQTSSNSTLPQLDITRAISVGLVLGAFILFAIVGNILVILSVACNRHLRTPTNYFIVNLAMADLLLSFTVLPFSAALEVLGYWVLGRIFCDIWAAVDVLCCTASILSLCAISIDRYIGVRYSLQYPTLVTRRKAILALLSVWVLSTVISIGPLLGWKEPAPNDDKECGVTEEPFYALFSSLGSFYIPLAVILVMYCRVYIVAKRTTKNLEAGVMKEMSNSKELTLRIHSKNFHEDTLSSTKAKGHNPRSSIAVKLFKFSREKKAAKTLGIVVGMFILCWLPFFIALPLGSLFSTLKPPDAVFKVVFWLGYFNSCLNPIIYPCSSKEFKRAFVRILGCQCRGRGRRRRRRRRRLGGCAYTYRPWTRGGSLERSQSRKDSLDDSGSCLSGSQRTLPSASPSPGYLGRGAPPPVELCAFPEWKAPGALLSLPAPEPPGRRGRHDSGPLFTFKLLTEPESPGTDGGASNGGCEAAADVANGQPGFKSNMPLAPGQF
Method: Alpha1A, alpha1B and Alpha1D adrenergic receptor transfected CHO-K1 cells, prepared using the methods described in Chang et al. (1998) FEBS Lett. 422:279-283, were grown to confluence in T-162 tissue culture flasks in Ham's F-12 culture medium supplemented with 10% fetal bovine serum, geneticin (150 μg/ml) and streptomycin: penicillin (30 μg/ml:30 μg/ml) at 37° C. in 7% CO2. Cells were harvested by incubating with phosphate-buffered saline (PBS) containing 30 μM EDTA for 5-10 min at 37° C. Cells were pelleted by centrifuging at 500×g for 5 min, the pelleted cells were homogenized (Polytron homogenizer) in 10 vols (w/v) of 50 mM Tris, 1 mM EDTA, (homogenisation buffer, pH 7.4 at 4° C.). The homogenate was centrifuged at 45,000×g for 20 min. […]
The membranes were thawed at room temperature and diluted in assay buffer (50 mM Tris, pH 7.4) at 37° C. and homogenized using the Polytron tissue disrupter. […] Scintillation cocktail was added to the filter plates and bound radioligand determined by liquid scintillation spectrophotometry.
For each experiment, total binding (in the absence of any test or reference compounds) and non specific binding (10 μM phentolamine) were determined. […] If the radioligand KD was known, the inhibition dissociation constant (Ki) of each ligand was determined according to the method of Cheng et al. (1973) Biochem. Pharmacol. 22:3099-3108).

[2] = tested on: neuropathic rats (chronic constriction injury); assay: Pain response to radiant heat in neuropathic (chronic constriction injury) rats; type: in vivo, rat; conditions: CCI rats
Method: Male Sprague-Dawley rats (Harlan), 240-300 g, were surgically prepared to have a chronic constriction injury (CCl) as described above 13-15 days prior to testing. Rats were selected for the study according to the following criteria: ligated leg (LL)latency−4 to 14 seconds; sham leg (LS) latency−6 to 18 seconds; difference (LDiff=LL−LS)−greater than 1.5 seconds. Selected rats were randomly assigned to treatment groups and dosed at 0 (vehicle, 10 ml/kg, 0.5% CMC, 30, 60, 100 or 300 μg/kg, i.p. After 45 minutes post-dosing, rats were placed under inverted plastic cages on an elevated glass platform. Following 15 minutes of acclimatization, a radiant heat source, e.g., light was placed below the glass and illuminated in order for the glass to reach a temperature of 80-82° F. For each rat, four trials of each of the following were performed: shone light on the left hind paw (sham) and recorded the latency when the paw was withdrawn; shone light on the right hind paw (ligated) and recorded the latency when the paw was withdrawn. Five minute intervals were allowed between trials. Hind paws were examined for redness and blistering after each test.
Male Sprague-Dawley rats (Harlan), 240-300 g, were surgically prepared to have a CCl as described above 19-21 days prior to testing. Rats were selected for the study according to the following described in Example 2. Selected rats were randomly assigned to treatment groups and dosed with 4-(2-naphthalen-1-yl-5-oxo-oxazol-4-ylidenemethyl)-N-phenyl-piperazine-1-carboxamidine at 0 (vehicle, 10 mL/kg deionized water, 30, 60, 100, 300 or 1000 μg/kg, i.p. After 1 hour post-dosing, rats were tested as described in Example 2.
(§1) Heat and cold allodynia responses can be evaluated as described below in rats having a chronic constriction injury (CCl). A unilateral mononeuropathy is produced in rats using the chronic constriction injury model described in Bennett et al. (1988) Pain 33:87-107.
(§2) CCl is produced in anesthetized rats as follows. The lateral aspect of each rat's hind limb is shaved and scrubbed with Nolvasan. Using aseptic techniques, an incision is made on the lateral aspect of the hind limb at the mid-thigh level. The biceps femoris is bluntly dissected to expose the sciatic nerve. On the right hind limb of each rat, four loosely tied ligatures (for example, Chromic gut 4.0; Ethicon, Johnson and Johnson, Somerville, N.J.) are made around the sciatic nerve approximately 1-2 mm apart. On the left side of each rat, an identical dissection is performed except that the sciatic nerve is not ligated (sham). The muscle is closed with a continuous suture pattern with, e.g., 4-0 Vicryl (Johnson and Johnson, Somerville, N.J.) and the overlying skin is closed with wound clips. The rats are ear-tagged for identification purposes and returned to animal housing.

[3] = tested on: neuropathic rats (chronic constriction injury); assay: Cold allodynia response (cold bath assay) in neuropathic (chronic constriction injury) rats; type: in vivo, rat
Method: This experiment was conducted to evaluate the effects of 4-(2-benzofuran-7-yl-5-oxo-oxazol-4-ylidenemethyl)-N-phenyl-piperazine-1-carboxamidine hydrochloride, and similar or related compounds, on the cold allodynia response in neuropathic rats. The test apparatus and methods of behavioral testing is described in Gogas et al. (1997) Analgesia 3:111-118.
Male Sprague-Dawley rats (Harlan), 160-200 g, were surgically prepared to have a chronic constriction injury (CCl) as described above 6 days prior to testing. Rats were selected for the study according to the following criteria: 1) the average of two trials was less than or equal to 13 sec; and 2) there was consistency across the two trial scores. Animals were screened for hypersensitivy to cold on post-surgery days 4 through 10, and selected for inclusion in dose-response studies based on the criteria described above. The pre-dose screening values were used as the animals' baseline cold allodynia scores.
Selected rats were tested twice in the cold bath assay described above for a pre-dose baseline and randomly assigned to treatment groups and dosed at 0 (vehicle, 10 ml/kg, 0.5% CMC, 30, 100 or 300 μg/kg, i.p. After 1 hour and 3 hours post-dosing, rats were tested in the cold bath assay. For each rat, the assay was run once at 1 and 3 hours post-dose. The time to raise the rear leg was recorded in each trial. The maximal observing time in each trial was 20 seconds.
Male Sprague-Dawley rats (Harlan), 160-270 g, were surgically prepared to have a chronic constriction injury (CCl) as described above 5 days prior to testing. Rats were selected and tested as described in Example 3. Selected rats were dosed at 0 (vehicle, 10 mL/kg, deionized water), 30 or 300 μg/kg, i.p. After 20 min and 40 minutes post-dosing, rats were tested in the cold bath assay.
Male Sprague-Dawley rats (Harlan), 170-270 g, were surgically prepared to have a chronic constriction injury (CCl) as described above 14 days prior to testing. Rats were selected and tested as described in Example 3. Selected rats were dosed at 0 (vehicle, 10 mL/kg, deionized water), 30 or 300 μg/kg, i.p. After 20 min and 40 minutes post-dosing, rats were tested in the cold bath assay.
as §1, §2

[4] = 60 μg/kg i.p., about 1 hour post-dosing
[5] = 100 μg/kg i.p., about 1 hour post-dosing
[6] = 300 μg/kg i.p., about 1 hour post-dosing
[7] = 300 μg/kg i.p., 40 min post-dose
[8] = 100 μg/kg i.p., 1 hour post-dose, p<0.01
[9] = 300 μg/kg i.p., 1 hour post-dose, p<0.01
[10] = 300 μg/kg i.p., 3 hours post-dose, p<0.05

SMILES | identification as selective alpha1B adrenergic receptor antagonist [1] | effect in the radiant heat assay (paw withdrawal latency) [2, 4] | effect in the radiant heat assay (paw withdrawal latency) [2, 5] | effect in the radiant heat assay (paw withdrawal latency) [2, 6] | effect in the radiant heat assay (paw withdrawal latency) ([2]; 1000 μg/kg i.p., 1 hour post-dosing) | cold allodynia: change in latency from pre-dose compared to vehicle group ([3]; 30 μg/kg i.p., 20 min post-dose) | cold allodynia: change in latency from pre-dose compared to vehicle group ([3]; 300 μg/kg i.p., 20 min post-dose) | cold allodynia: change in latency from pre-dose compared to vehicle group [3, 7] | cold allodynia: latency times compared to pre-dose [3, 7] | cold allodynia: latency times compared to pre-dose ([3]; 20 min post-dose, i.p. (doses tested 30 or 300 μg/kg; dose not given)) | cold allodynia: latency times compared to vehicle control [3, 7] | cold allodynia: actual latency times compared to vehicle [3, 8] | cold allodynia: changes from pre-dose compared to vehicle [3, 8] | cold allodynia: actual latency times compared to vehicle [3, 9] | cold allodynia: changes from pre-dose compared to vehicle [3, 9] | cold allodynia: actual latency times compared to vehicle [3, 10] | cold allodynia: changes from pre-dose compared to vehicle [3, 10]
N=C(Nc1ccccc1)N1CCN(C=C2N=C(c3cccc4ccccc34)OC2=O)CC1 [4-(2-naphthalen-1-yl-5-oxo-oxazol-4-ylidenemethyl)-N-phenyl-piperazine-1-carboxamidine] | identified as a selective alpha1B adrenergic receptor antagonist | significant effect | significant effect | significant effect | significant effect | significant increase in latency from pre-dose | significant increase in latency from pre-dose | significant change from pre-dose | significant increase in latency | significant change in latency times | – | – | – | – | – | – | –
Cc1c[nH]c(=O)n(CCCN2CCN(c3ccccc3OCC(F)(F)F)CC2)c1=O [3-(3-{4-[2-(2,2,2-trifluoroethoxy)phenyl]-piperazin-1-yl}propyl)-5-methyl-2,4(1H,3H)-pyrimidinedione, reference compound] | – | – | – | – | – | – | – | significant changes | – | – | significant increase in latency times | – | – | – | – | – | –
Cl.N=C(Nc1ccccc1)N1CCN(C=C2N=C(c3cccc4ccoc34)OC2=O)CC1 [4-(2-benzofuran-7-yl-5-oxo-oxazol-4-ylidenemethyl)-N-phenyl-piperazine-1-carboxamidine hydrochloride] | identified as selective alpha1B adrenergic receptor antagonists | significant effect | significant effect | significant effect | – | – | – | – | – | – | – | significantly higher than vehicle | significantly higher than vehicle | significantly higher than vehicle | significantly higher than vehicle | significantly higher than vehicle | significantly higher than vehicle
